Reference: ChEMBL document CHEMBL1140657, “SAR of a novel 'Anthranilamide Like' series of VEGFR-2, multi protein kinase inhibitors for the treatment of cancer” (Bioorg Med Chem Lett, 2007)
Where “and” joins values, the source holds several entries; their conditions need not be identical. Equal entries are not always repeated.

Experiments:
COLO 205 = assay: Inhibition of tumor growth in human Colo205 cells xenografted in athymic mouse at 50 mg/kg, po once daily after 9 days; format: functional; details: COLO 205, 216 h
MDA-MB-231 = assay: Inhibition of tumor growth in human MDA-MB-231 cells xenografted in athymic mouse at 50 mg/kg, po once daily after 9 days; format: functional; details: MDA-MB-231, 216 h
[1] = Cmax in ICR mouse at 25 mg/kg; format: ADME, organism-based; design: dose 25 mg/kg; details: in vivo
[2] = AUC (1 to 5 hrs) in ICR mouse; format: ADME, organism-based; design: time 1-5 hr; details: plasma
NCI-H460 = assay: Inhibition of tumor growth in human NCI-H460 NSCLC cells xenografted in athymic mouse at 50 mg/kg, po once daily after 9 days; format: functional; details: NCI-H460, 216 h
[3] = biological target: Mast/stem cell growth factor receptor Kit (Homo sapiens, UniProt P10721); assay: Inhibition of human recombinant cKit by FRET assay
[4] = Volume of distribution at steady state in iv dosed ICR mouse; format: ADME, organism-based; details: in vivo, read-out: Vdss
[5] = biological target: Vascular endothelial growth factor receptor 2 (Homo sapiens, UniProt P35968); assay: Inhibition of VEGFR2
[6] = biological target: Serine/threonine-protein kinase B-raf (Homo sapiens, UniProt P15056); assay: Inhibition of b-Raf
[7] = AUC in ICR mouse at 25 mg/kg, po; format: ADME, organism-based; design: dose 25 mg/kg, route oral; details: plasma
[8] = Cmax in ICR mouse at 15 mg/kg; format: ADME, organism-based; design: dose 15 mg/kg; details: in vivo
[9] = AUC (0 to 5 hrs) in ICR mouse at 25 mg/kg, po; format: ADME, organism-based; design: time < 4 hr, dose 25 mg/kg, route oral; details: plasma

Serine/threonine-protein kinase B-raf, sequence (P15056 whole entry): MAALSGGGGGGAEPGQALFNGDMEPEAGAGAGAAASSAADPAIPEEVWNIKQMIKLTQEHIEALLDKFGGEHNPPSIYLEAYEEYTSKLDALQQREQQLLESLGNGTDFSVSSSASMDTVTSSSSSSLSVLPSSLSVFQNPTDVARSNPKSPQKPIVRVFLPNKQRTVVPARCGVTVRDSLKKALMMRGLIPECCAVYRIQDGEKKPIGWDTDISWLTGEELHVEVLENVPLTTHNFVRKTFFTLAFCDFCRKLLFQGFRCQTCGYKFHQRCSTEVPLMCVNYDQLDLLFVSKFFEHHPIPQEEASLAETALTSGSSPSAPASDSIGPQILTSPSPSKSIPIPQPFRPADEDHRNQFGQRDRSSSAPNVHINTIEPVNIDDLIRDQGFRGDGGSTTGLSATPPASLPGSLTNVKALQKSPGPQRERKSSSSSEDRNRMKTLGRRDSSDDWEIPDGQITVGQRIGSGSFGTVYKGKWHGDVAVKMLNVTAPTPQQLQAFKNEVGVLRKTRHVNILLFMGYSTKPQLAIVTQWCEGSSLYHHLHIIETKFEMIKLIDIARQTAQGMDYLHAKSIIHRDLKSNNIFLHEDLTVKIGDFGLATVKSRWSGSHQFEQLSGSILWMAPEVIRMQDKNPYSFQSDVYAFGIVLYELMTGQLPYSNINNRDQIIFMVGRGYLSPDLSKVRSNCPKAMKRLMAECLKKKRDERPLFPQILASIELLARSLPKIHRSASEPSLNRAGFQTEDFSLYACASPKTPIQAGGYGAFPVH
Mast/stem cell growth factor receptor Kit, sequence (P10721 whole entry): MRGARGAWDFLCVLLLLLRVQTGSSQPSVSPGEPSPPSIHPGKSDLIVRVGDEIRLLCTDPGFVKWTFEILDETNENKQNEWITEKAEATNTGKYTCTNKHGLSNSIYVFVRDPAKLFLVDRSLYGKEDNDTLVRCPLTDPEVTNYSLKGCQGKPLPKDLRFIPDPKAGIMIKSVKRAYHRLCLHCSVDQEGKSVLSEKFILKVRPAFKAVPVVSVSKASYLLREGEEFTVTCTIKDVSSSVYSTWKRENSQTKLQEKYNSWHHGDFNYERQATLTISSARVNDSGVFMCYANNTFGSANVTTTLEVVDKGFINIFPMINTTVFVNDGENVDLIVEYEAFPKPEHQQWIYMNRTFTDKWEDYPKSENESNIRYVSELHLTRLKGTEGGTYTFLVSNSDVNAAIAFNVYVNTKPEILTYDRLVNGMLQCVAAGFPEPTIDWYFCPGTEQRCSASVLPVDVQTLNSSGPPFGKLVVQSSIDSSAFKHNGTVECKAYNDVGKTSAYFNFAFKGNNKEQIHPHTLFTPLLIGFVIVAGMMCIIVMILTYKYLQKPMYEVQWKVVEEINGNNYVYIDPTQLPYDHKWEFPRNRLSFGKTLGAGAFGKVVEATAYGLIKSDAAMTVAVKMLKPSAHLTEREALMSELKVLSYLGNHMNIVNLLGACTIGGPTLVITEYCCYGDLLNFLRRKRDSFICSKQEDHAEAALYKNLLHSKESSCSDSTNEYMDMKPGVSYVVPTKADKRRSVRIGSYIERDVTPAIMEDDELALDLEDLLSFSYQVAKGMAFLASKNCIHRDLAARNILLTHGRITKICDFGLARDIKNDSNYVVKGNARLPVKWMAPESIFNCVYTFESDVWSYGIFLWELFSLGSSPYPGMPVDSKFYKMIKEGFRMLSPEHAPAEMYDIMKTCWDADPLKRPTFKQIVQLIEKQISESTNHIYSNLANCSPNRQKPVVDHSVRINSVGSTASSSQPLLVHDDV
Vascular endothelial growth factor receptor 2, sequence (P35968 whole entry): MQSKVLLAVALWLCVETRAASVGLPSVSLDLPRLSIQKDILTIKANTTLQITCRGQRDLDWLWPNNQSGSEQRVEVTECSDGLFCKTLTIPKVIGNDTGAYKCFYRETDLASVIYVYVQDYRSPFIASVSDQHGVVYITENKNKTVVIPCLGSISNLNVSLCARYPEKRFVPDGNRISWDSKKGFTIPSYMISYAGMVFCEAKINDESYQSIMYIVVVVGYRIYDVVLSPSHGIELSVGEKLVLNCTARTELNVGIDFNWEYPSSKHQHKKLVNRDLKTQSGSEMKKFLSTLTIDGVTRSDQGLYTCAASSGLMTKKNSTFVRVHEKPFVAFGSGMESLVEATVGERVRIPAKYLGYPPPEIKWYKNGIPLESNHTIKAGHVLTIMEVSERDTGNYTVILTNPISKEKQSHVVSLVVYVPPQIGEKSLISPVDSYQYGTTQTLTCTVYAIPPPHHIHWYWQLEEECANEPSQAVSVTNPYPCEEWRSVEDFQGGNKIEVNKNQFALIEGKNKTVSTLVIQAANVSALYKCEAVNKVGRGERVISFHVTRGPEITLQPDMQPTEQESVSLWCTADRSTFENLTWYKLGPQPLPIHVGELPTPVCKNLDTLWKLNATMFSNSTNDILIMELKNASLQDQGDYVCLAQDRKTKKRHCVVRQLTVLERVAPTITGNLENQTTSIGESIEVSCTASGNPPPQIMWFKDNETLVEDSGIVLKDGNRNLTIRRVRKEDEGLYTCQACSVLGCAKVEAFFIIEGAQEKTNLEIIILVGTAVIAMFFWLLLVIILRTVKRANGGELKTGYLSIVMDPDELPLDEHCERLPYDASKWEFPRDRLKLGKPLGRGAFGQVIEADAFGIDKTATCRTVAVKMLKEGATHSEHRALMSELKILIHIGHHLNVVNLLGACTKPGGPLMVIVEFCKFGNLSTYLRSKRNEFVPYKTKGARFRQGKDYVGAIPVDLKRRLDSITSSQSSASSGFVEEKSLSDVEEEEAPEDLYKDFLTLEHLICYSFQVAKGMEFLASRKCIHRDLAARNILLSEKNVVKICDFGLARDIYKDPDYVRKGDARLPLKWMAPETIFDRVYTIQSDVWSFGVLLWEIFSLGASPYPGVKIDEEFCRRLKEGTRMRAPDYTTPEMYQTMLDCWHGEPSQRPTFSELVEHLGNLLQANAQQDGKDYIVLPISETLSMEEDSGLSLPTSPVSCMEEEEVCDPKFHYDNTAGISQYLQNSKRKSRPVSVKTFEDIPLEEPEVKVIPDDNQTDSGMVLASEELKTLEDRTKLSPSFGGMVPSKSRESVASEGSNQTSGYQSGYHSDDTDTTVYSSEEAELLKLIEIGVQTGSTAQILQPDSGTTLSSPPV

Compound | IC50 [3] | IC50 [6] | further results
CCNC(=O)Nc1ccc(CNc2ncsc2C(=O)Nc2ccc3c(c2)OC(F)(F)O3)cn1 | 4 nM | – | inhibition in vivo at 50 mg/kg (COLO 205): 86%; inhibition in vivo at 50 mg/kg (MDA-MB-231): 92%; Cmax [1]: 64 µM; AUC(0-t) [2]: 255 µM·h; inhibition in vivo at 50 mg/kg (NCI-H460): 79%; Vd [4]: 0.24 L/kg; IC50 [5]: 7 nM
COCCCNC(=O)c1cc(CNc2ccccc2C(=O)Nc2ccc3c(c2)OC(F)(F)O3)ccn1 | 19 nM | 1030 nM | –
N#Cc1cc(CNc2ccccc2C(=O)Nc2ccc3c(c2)OC(F)(F)O3)ccn1 | 37 nM | 110 nM | –
O=C(Nc1ccc2c(c1)OC(F)(F)O2)c1ccccc1NCc1ccnc(C2=NCCN2)c1 | 72 nM | 153 nM | –
O=C(Nc1ccc2c(c1)CCC2)Nc1cc(CNc2ccccc2C(=O)Nc2ccc3c(c2)OC(F)(F)O3)ccn1 | 240 nM | 64 nM | –
CC(=O)Nc1cc(CNc2ccccc2C(=O)Nc2ccc3c(c2)OC(F)(F)O3)ccn1 | 1 nM | 5 nM | –
O=C(Nc1ccc2c(c1)OC(F)(F)O2)c1ccccc1NCc1ccnc(NCCCO)c1 | 9 nM | 142 nM | –
O=C(Nc1ccc2c(c1)OC(F)(F)C(F)(F)O2)c1ncsc1NCc1ccncc1 | 95 nM | 2560 nM | –
O=C(Nc1ccc2c(c1)OC(F)(F)C(F)(F)O2)c1ccccc1NCc1ccncc1 | 19 nM | 40 nM | AUC [7]: 6 µM·h
COCCNC(=O)c1cc(CNc2ccccc2C(=O)Nc2ccc3c(c2)OC(F)(F)O3)ccn1 | 38 nM | 497 nM | –
COCCCNc1cc(CNc2ccccc2C(=O)Nc2ccc3c(c2)OC(F)(F)O3)ccn1 | 12 nM | 156 nM | –
NC(=O)c1cc(CNc2ccccc2C(=O)Nc2ccc3c(c2)OC(F)(F)O3)ccn1 | 2 nM | 34 nM | –
CNC(=O)Nc1cc(CNc2ccccc2C(=O)Nc2ccc3c(c2)OC(F)(F)O3)ccn1 | 5 nM | 24 nM | –
CNC(=O)Nc1ccc(CNc2ncsc2C(=O)Nc2ccc3c(c2)OC(F)(F)O3)cn1 | 5 nM | – | inhibition in vivo at 50 mg/kg (COLO 205): 84%; inhibition in vivo at 50 mg/kg (MDA-MB-231): 90%; Cmax [1]: 124 µM; AUC(0-t) [2]: 538 µM·h; inhibition in vivo at 50 mg/kg (NCI-H460): 70%; Vd [4]: 0.151 L/kg; IC50 [5]: 3 nM
CNc1nccc(CNc2ccccc2C(=O)Nc2ccc3c(c2)OC(F)(F)O3)n1 | 3 nM | 26 nM | –
COCCNc1cc(CNc2ccccc2C(=O)Nc2ccc3c(c2)OC(F)(F)O3)ccn1 | 13 nM | 104 nM | –
O=C(Nc1ccccc1)Nc1cc(CNc2ccccc2C(=O)Nc2ccc3c(c2)OC(F)(F)O3)ccn1 | 87 nM | 39 nM | –
CNC(=O)Nc1ccc(CNc2c(C(=O)Nc3ccc(SC(F)(F)F)cc3)cnn2C)cn1 | 17 nM | 154 nM | AUC(0-t) [2]: 11 µM·h; Cmax [8]: 3.6 µM; IC50 [5]: 62 nM
O=C(Nc1ccc2c(c1)OC(F)(F)O2)c1ccccc1NCc1ccnc(NCCOCCO)c1 | 4 nM | 165 nM | –
CNC(=O)c1cc(CNc2ncsc2C(=O)Nc2ccc3c(c2)OC(F)(F)O3)ccn1 | 25 nM | 1240 nM | –
CCNC(=O)c1cc(CNc2ccccc2C(=O)Nc2ccc3c(c2)OC(F)(F)O3)ccn1 | 25 nM | 333 nM | –

Compound | IC50 [3] | IC50 [6] | further results
CNC(=O)Nc1ccc(CNc2c(C(=O)Nc3ccc4c(c3)OC(F)(F)C(F)(F)O4)cnn2C)cn1 | 12 nM | – | AUC(0-t) [2]: 19 µM·h; Cmax [8]: 6 µM; IC50 [5]: 43 nM
O=C(NCc1ccccc1)Nc1cc(CNc2ccccc2C(=O)Nc2ccc3c(c2)OC(F)(F)O3)ccn1 | 48 nM | 232 nM | –
CS(=O)(=O)CCNC(=O)c1cc(CNc2ccccc2C(=O)Nc2ccc3c(c2)OC(F)(F)O3)ccn1 | 17 nM | 221 nM | –
CNC(=O)c1cc(CNc2ncsc2C(=O)Nc2ccc3c(c2)OC(F)(F)C(F)(F)O3)ccn1 | 12 nM | 192 nM | –
CCNC(=O)Nc1cc(CNc2ccccc2C(=O)Nc2ccc3c(c2)OC(F)(F)O3)ccn1 | 7 nM | 90 nM | AUC(0-t) at 4 h [9]: > 400 µM·h
O=C(Nc1ccc2c(c1)OC(F)(F)O2)c1ccccc1NCc1ccnc(NCCCn2ccnc2)c1 | 20 nM | 101 nM | –
CNC(=O)c1cc(CNc2ccsc2C(=O)Nc2ccc3c(c2)OC(F)(F)O3)ccn1 | 3 nM | 61 nM | –
CN(C)c1nccc(CNc2ccccc2C(=O)Nc2ccc3c(c2)OC(F)(F)O3)n1 | 50 nM | 349 nM | –
O=C(NCCO)c1cc(CNc2ccccc2C(=O)Nc2ccc3c(c2)OC(F)(F)O3)ccn1 | 18 nM | 397 nM | –
CCN(CC)CCNC(=O)c1cc(CNc2ccccc2C(=O)Nc2ccc3c(c2)OC(F)(F)O3)ccn1 | 58 nM | 138 nM | –
O=C(Nc1ccc2c(c1)OC(F)(F)O2)c1ccccc1NCc1ccnc(NCCc2cnc[nH]2)c1 | 23 nM | 146 nM | –
CCN(CC)CCCNC(=O)c1cc(CNc2ccccc2C(=O)Nc2ccc3c(c2)OC(F)(F)O3)ccn1 | 42 nM | 175 nM | –
CNC(=O)c1cc(CNc2c(C(=O)Nc3ccc4c(c3)OC(F)(F)O4)cnn2C)ccn1 | 11 nM | 199 nM | –
CS(=O)(=O)Nc1cc(CNc2ccccc2C(=O)Nc2ccc3c(c2)OC(F)(F)O3)ccn1 | 25 nM | 594 nM | –
NC(=S)c1cc(CNc2ccccc2C(=O)Nc2ccc3c(c2)OC(F)(F)O3)ccn1 | 27 nM | 100 nM | –
O=C(Nc1ccc2c(c1)OC(F)(F)O2)c1ccccc1NCc1ccnc(NCCO)c1 | 8 nM | 112 nM | –
Nc1cc(CNc2ccccc2C(=O)Nc2ccc3c(c2)OC(F)(F)O3)ccn1 | 4 nM and 1 nM | 634 nM and 274 nM | –
CNc1cc(CNc2ccccc2C(=O)Nc2ccc3c(c2)OC(F)(F)O3)ccn1 | 3 nM | 100 nM | –
CNC(=O)c1cc(CNc2ccccc2C(=O)Nc2ccc3c(c2)OC(F)(F)O3)ccn1 | 5 nM | 45 nM | AUC [7]: 40 µM·h
O=C(NC1CC1)c1cc(CNc2ccccc2C(=O)Nc2ccc3c(c2)OC(F)(F)O3)ccn1 | 16 nM | 192 nM | –
O=C(NCCCN1CCOCC1)c1cc(CNc2ccccc2C(=O)Nc2ccc3c(c2)OC(F)(F)O3)ccn1 | 45 nM | 6830 nM | –
